Several values for one entry are separate records, joined by “and”; a condition that tells them apart may be missing. Identical values can stand only once. Entries after “also recorded” stand apart in the source; their conditions may differ.
Key:
[1] = test system: human pluripotent stem cells; test: HD-DoE 13-factor experiment for stage 1 recipe, gene expression modeled after 3-day treatment; dynamic profile and factor criticality analysis; type: cell-based
From the text: This example utilizes a method of High-Dimensional Design of Experiments (HD-DoE), as previously described in Bukys et al. (2020) Iscience 23:101346. The method employs computerized design geometries to simultaneously test multiple process inputs and offers mathematical modeling of a deep effector/response space. The method allows for finding combinatorial signaling inputs that control a complex process, such as during cell differentiation. It allows testing of multiple plausible critical process parameters, as such parameters impact output responses, such as gene expression. Because gene expression provides hallmark features of the phenotype of, for example, a human cell, the method can be applied to identify, and understand, which signaling pathways control cell fate. In the current example, the HD-DOE method was applied with the intent to find conditions for induction of midbrain neural progenitor-expressed genes, directly from the pluripotent stem cell state.
To develop the recipe for each stage, the impact of agonists and antagonists of multiple signaling pathways (referred to herein as “effectors”) on the expression of two sets of 53 pre-selected genes after a 3-day treatment was tested and modeled. These effectors are small molecules or proteins that are commonly used during stepwise differentiation of stem cells to specific fates. The choice of the effectors to test was based on current literature on neural induction in the midbrain region of the developing brain and differentiation of stem cells to neural progenitors.
To test the effectors, experiments with at least 8 factors were designed that can assess the response of cells to 48 or more different combinations of effectors in a range of concentrations. To analyze the models, we focused on expression of genes expressed in the midbrain region, including OTX2, DMBX1, FOXA2, LMX1A, and on the absence of GBX2, which is a hindbrain marker. The impact of each effector on gene expression level is defined by a parameter called factor contribution that is calculated for each effector during the modeling.
To identify the recipe of stage 1 of differentiation, cells were treated with various effectors for 3 days and the gene expression of cells was modeled. […] This model consisted of 13 factors including LDN193189, PD173074, BLU9931, Purmorphamine, SC79, MK2206, ZM336372, PD0325901, CHIR99021, XAV939, UCLA-gp130, Tofacitinib and GO 6983.
(§1) To assess the impact of elimination of each validated factor, we used dynamic profile analysis and compared the expression level of genes of interest in absence of each finalized factor while others are present.
In the stage 1 recipe, each of the five finalized factors were removed while the other four factors were present and the expression levels of OTX2, DMBX1, FOXA2 and LMX1A was assessed compared to the levels in the presence of all five factors (FIG. 11A-B). […] Expression level of DMBX1 increased in absence of LDN193189, however values of OTX2, FOXA2 and LMX1A decreased.

[2] = test system: stage 2 neural progenitors; test: HD-DoE 12-factor model for stage 3 recipe (FIG. 19-23, 29); type: cell-based, human
From the text: To develop the neuronal differentiation recipes, the impact of various agonist and antagonists (effectors) on maturation of MB neural progenitors was investigated using the HD-DoE method described in Example 1. These effectors were chosen based on available literature on developmental biology, differentiation of stem cells as well as mouse and human single cell RNA-seq data from midbrain neurons at the time.
To engineer the recipe of stage 3 of differentiation, cells were first cultured in the stage 1 and stage 2 media as described herein, then they were treated with combinations of 8 or 12 factors for 3 days and the gene expression of cells in each condition was modeled. To guide the cells towards a subtype of midbrain dopaminergic neurons that reside in Substantia Nigra pars compacta (SNc) region of the brain, neural progenitors need to be SOX6^+ (Pereira et al. (2021) Cell Rep. 37:109975 Oosterveen et al. (2021) Stem Cell Reports 16:2718-2735 Poulin et al. (2020) Trends Neurosci. 43:155-169). CORIN, NGN2 and MSX1 are other markers involved in neurogenesis of dopaminergic neurons originating from floorplate region of developing midbrain (Wang et al. (2020) Cells 9:1489; Samata et al. (2016) Nat Commun. 7:13097; Ono et al. (2007) Development 134:3213-3225; Prakash et al. (2006) J. Physiol. 575:403410).
Therefore, we focused on maximizing expression of SOX6, CORIN, NGN2 and MSX1 in modeling experiments. One of the 12-factor models, the results of which are shown in FIG. 19, including LDN193189, AGN193109, BMP7, TTNPB, PD0325901, A8301, MHY1485, CHIR99021, XAV939, SANT-1, Purmorphamine and MK2206, provided a combination set that could maximize expression level of CORIN to more than 2000.
(§2) To assess the impact of elimination of each validated factor identified in Example 5 for the stage 3 and stage 4 recipes, we used dynamic profile analysis and compared the expression level of genes of interest in absence of each finalized factor while others are present.
In the stage 3 recipe, each of the finalized factors were removed in their respective models while other factors were present and the expression level of genes of interest was assessed compared to presence of all factors. When AGN193109 was excluded, level of all CORIN, KCNJ6, MSX1 and SOX6 decreased from 900 to 450, 50 to 35, 140 to 110 and 105 to 60, respectively. […] When PD0325901 was removed, expression levels of CORIN and KCNJ6 increased to 1200 and 70 while levels of MSX1 and SOX6 decreased to 105 and 20. In the absence of CHIR99021, the expression level of CORIN was again increased to 1200 while the level of KCNJ6 and MSX1 dropped to 50 and 115. […] Therefore, it was decided to include this compound in the final recipe. […] Therefore, CHIR99021 was also included in the final recipe.

[3] = test system: stage 2 neural progenitors; test: HD-DoE another 12-factor model for stage 3 recipe (FIG. 24, 25, 30); type: cell-based, human; conditions: for impact on expression of SOX6 / impact on expression of MSX1: dynamic profile, 12 effectors
Method: In another 12-factor model, additional factors including Activin A, Takinib (TAK inhibitor), FGF8b, AZD3147 (mTOR antagonist), MHY1485 (mTOR agonist), and Yhhu-3792 (Notch agonist) were tested. Some of the factors from previous model (BMP7, A 8301, LDN193189, PD0325901, MK2206 and DBZ) were also included.
as §2
In another model, to determine the combinatorial effect of AZD3147 and DBZ on gene profile of cells in presence of other factors of final recipe, the expression levels of SOX6 and MSX1 were compared in the absence of each of the factors in the presence of PD0325901 and BMP7. These two compounds were the only final compounds that were included in inputs of this experimental model The results are shown in FIG. 30A and FIG. 30B. […] When DBZ was removed, the level of SOX6 and MSX1 both decreased to 140 and 35, respectively.

[4] = test system: stage 1 neural stem cells; test: HD-DoE 12-factor experiment for stage 2 recipe (second model, FIG. 8-10, 13); type: cell-based, human; conditions: dynamic profile, 12 effectors
Method: To test additional factors like FGF8 that is routinely used in midbrain differentiation protocols, we ran another 12-factor experiment consisting of LDN193189, BMP7, A 83-01, Activin A, Takinib, PD0325901, MK2206, FGF8b, AZD3147, MHY1485, GSI-XX and Yhhu 3792. Similar to the previous experiment, hiPSCs were treated with stage 1 media for 3 days and then treated with 96 conditions of combinations of the factors for an additional 3 days. When this model was optimized for maximum expression of FOXA2, BMP7 with factor contribution of 13.7 and MK2206 with 14.2 had the most impact on its expression followed by AZD 3147 with factor contribution of 10.9.
as §1
In the stage 2 recipe, each of the six finalized factors were removed while the other five factors were present and the expression levels of FOXA2, LMX1A and GBX2 were assessed, compared to the levels in the presence of all factors. According to the first experiment model, the absence of TTNPB lead to a rise of GBX2 expression, while the value of FOXA2 and LMX1A reduced drastically from 10,000 to 0 and 30,000 to 15,000, respectively. The absence of A 83-01 reduced the expression of FOXA2 from 10,000 to 7000, however, as expected, the value of LMX1A increased from 30,000 to 40,000. […] According to the second experiment model, the absence of BMP7 and MK2206 both reduced the level of FOXA2 while increasing the value of LMX1A, with BMP7 as the main effector that led to 0 expression of FOXA2.

stage 3 immature neurons = test: HD-DoE 8-factor experiment for stage 4 recipe (FIG. 27, 28, 31); type: cell-based, human; conditions: for impact on expression of NR4A2: 8-factor model / dynamic profile; for expression level of PITX3 in absence of the factor / expression level of NR4A2 in absence of the factor: stage 4 recipe, other factors present; for expression level of PITX3 in absence of the factor: 40 with all factors; for expression level of NR4A2 in absence of the factor: 400 with all factors
Method: To further differentiate the cells to a mature neuronal identity, additional HD-DoE experiments were performed on the cells that were cultured in stage 1, stage 2 and stage 3 differentiation media. After 4 days, gene expression of cells in different combinatorial conditions were investigated. At this time, we focused on maximal expression of more mature dopaminergic genes such as NR4A2, PITX3 and TH (Tiklová et al. (2020) Nat Commun. 11:2434; Fiorenzano et al. (2021) Nat Commun., 12:7302). In one model, cells were treated with a combinatorial matrix with eight inputs including CHIR99021, BDNF, GDNF, Rosiglitazone, GW7647, DBZ and heparin.
as §2
In the stage 4 recipe, each of six finalized factors were excluded while other factors were present and the expression levels of NR4A2 and PITX3 were assessed compared to the presence of all factors.

Row | Molecule | impact on expression of SOX6 [3] | impact on expression of FOXA2 [4] | impact on expression of LMX1A [4] | impact on expression of MSX1 [3] | impact on expression of NR4A2 (stage 3 immature neurons) | expression level of PITX3 in absence of the factor (stage 3 immature neurons) | expression level of NR4A2 in absence of the factor (stage 3 immature neurons) | other results
1 | O=C(NOC[C@H](O)CO)c1ccc(F)c(F)c1Nc1ccc(I)cc1F [PD0325901] | positive impact | – | – | – | – | – | – | impact on expression of OTX2 ([1]; dynamic profile, 13 effectors): positive impact; factor contribution ([1]; model optimized for maximum expression of OTX2, positive impact, 3-day treatment): 18.1; expression level of LMX1A in absence of the factor ([1]; stage 1 recipe, other four factors present, 300 with all five factors): 500; expression level of FOXA2 in absence of the factor ([1]; stage 1 recipe, other four factors present, 600 with all five factors): 700; expression level of DMBX1 in absence of the factor ([1]; stage 1 recipe, other four factors present, 3000 with all five factors): 900; factor contribution ([2]; model optimized for maximum expression of KCNJ6, positive regulators): 10.9; factor contribution ([2]; model optimized for maximum expression of SOX6, positive impact): 13.5; expression level of KCNJ6 in absence of the factor ([2]; stage 3 recipe, other factors present, 50 with all factors): 70; expression level of SOX6 in absence of the factor ([2]; stage 3 recipe, other factors present, 105 with all factors): 20; expression level of MSX1 in absence of the factor ([2]; stage 3 recipe, other factors present, 140 with all factors): 105; expression level of CORIN in absence of the factor ([2]; stage 3 recipe, other factors present, 900 with all factors): 1200; level of MSX1 in absence of the factor ([3]; AZD3147, DBZ, PD0325901 and BMP7 set, 45 with all factors): 40; level of SOX6 in absence of the factor ([3]; AZD3147, DBZ, PD0325901 and BMP7 set, 185 with all factors): 165
2 | CCCn1/c(=N/C(=O)c2cccc(C(N)=O)c2)[nH]c2ccccc21 [Takinib] | positive effect | did not make a meaningful positive change | did not make a meaningful positive change | negatively regulate; also recorded: negative impact | – | – | – | –
3 | GDNF: glial cell line-derived neurotrophic factor, GDNF agonist (protein, UniProt P39905 78-211, looked up) Glial cell line-derived …: SPDKQMAVLPRRERNRQAAAANPENSRGKGRRGQRGKNRGCVLTAIHLNVTDLGLGYETKEELIFRYCSGSCDAAETTYDKILKNLSRNRRLVSDKVGQACCRPIAFDDDLSFLDDNLVYHILRKHSAKRCGCI | – | – | – | – | positive regulatory impact | 25 | 300 | –
4 | Activin A: effector tested in the HD-DoE experiments (protein, UniProt P08476 311-426, looked up, Inhibin beta A chain) Inhibin beta A chain: GLECDGKVNICCKKQFFVSFKDIGWNDWIIAPSGYHANYCEGECPSHIAGTSGSSLSFHSTVINHYRMRGHSPFANLKSCCVPTKLRPMSMLYYDDGQNIIKKDIQNMIVEECGCS | positive effect | did not make a meaningful positive change | did not make a meaningful positive change | negatively regulate; also recorded: negative impact | – | – | – | –
5 | BDNF: brain-derived neurotrophic factor, BDNF agonist (protein, UniProt P23560 19-247, looked up) Neurotrophic factor BDNF …: APMKEANIRGQGGLAYPGVRTHGTLESVNGPKAGSRGLTSLADTFEHVIEELLDEDQKVRPNEENNKDADLYTSRVMLSSQVPLEPPLLFLLEEYKNYLDAANMSMRVRRHSDPARRGELSVCDSISEWVTAADKKTAVDMSGGTVTVLEKVPVSKGQLKQYFYETKCNPMGYTKEGCRGIDKRHWNSQCRTTQSYVRALTMDSKKRIGWRFIRIDTSCVCTLTIKRGR | – | – | – | – | positive impact | 10 | 100 | impact on expression level of PITX3 (stage 3 immature neurons; dynamic profile, 8 effectors): positive impact; factor contribution (stage 3 immature neurons; model maximized for NR4A2, positive regulatory impact, after 4 days): 17 and 17.1

Source: patent publication US20240117303A1, “METHODS AND COMPOSITIONS FOR GENERATING HUMAN MIDBRAIN DOPAMINERGIC NEURONS FROM NEURAL PROGENITOR CELLS” (Trailhead Biosystems Inc., priority 2022, published 2024)
